Experimental data reported in patent US12006330B2, “Substituted macrocyclic compounds and related methods of treatment” (Alkermes, Inc., priority 2020, dated 2024).

Target: T1, human orexin-2 receptor (OX2R) (Homo sapiens, UniProt O43614)
T1 construct: expressed in transfected cells
T1 sequence (O43614 1-444): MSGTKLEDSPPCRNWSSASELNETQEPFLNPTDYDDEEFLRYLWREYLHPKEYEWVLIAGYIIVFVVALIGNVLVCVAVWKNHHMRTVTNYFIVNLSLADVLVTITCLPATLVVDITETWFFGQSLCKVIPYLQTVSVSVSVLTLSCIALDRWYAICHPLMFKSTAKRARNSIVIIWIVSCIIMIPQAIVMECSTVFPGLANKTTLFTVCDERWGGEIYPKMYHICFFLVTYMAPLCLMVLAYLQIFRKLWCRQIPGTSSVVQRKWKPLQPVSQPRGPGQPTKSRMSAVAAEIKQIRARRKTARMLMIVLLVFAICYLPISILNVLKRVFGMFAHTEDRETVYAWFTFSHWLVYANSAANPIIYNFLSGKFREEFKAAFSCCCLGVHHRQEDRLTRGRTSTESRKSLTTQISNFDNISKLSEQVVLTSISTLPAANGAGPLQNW
Assay: Human OX2R IP1 assay
Format: cell-based
Conditions: T-Rex CHO cells stably overexpressing human OX2R; IP1 accumulation; 1 hr at 37 degrees C; mean EC50
Protocol: T-Rex CHO cells stably overexpressing the human orexin-2 receptor (OX2R) were induced overnight with 1 μg/mL of doxycycline in a T225 flask. 24 hours post induction, cells were lifted with accutase and plated into a 384-well proxy plate at 30,000 cells/well. Cells were then treated with different test compounds in 1× stimulation buffer containing 10 mM Hepes, 1 mM CaCl2), 0.5 mM MgCl2, 4.2 mM KCl, 146 mM NaCl, 5.5 mM glucose, and 50 mM LiCl, pH 7.4, for 1 hr at 37 degrees C. Following incubation, the reaction was terminated by the addition of detection mix, which is composed of IP1-d2 and anti-IP1-cryptate diluted in lysis buffer as well as 1× stimulation buffer. The plates were allowed to incubate for 1 hour at room temperature and were then read in the EnVision® multimode plate reader, measuring inositol phosphate levels.
Cisbio IP1 is a cell-based functional assay quantifying the accumulation of inositol monophosphate (IP), a metabolite released as a result of orexin 2 receptor activation through the phospholipase C-Gq signaling pathway. This is a competitive immunoassay in which the IP1 produced by the cells upon receptor activation competes with the IP1 analog coupled to the d2 fluorophore (acceptor) for binding to an anti-IP1 monoclonal antibody labeled with Eu cryptate (donor). The measured HTRF-FRET based signal is inversely proportional to the IP1 concentration produced.
The EC50 values reported in Table 2 were obtained according to the human OX2R IP1 assay described above. Data are the mean EC50 values S.E.M. Reference Compound A is methyl (2R,3S)-3-((methylsulfonyl)amino)-2-(((cis-4-phenylcyclohexyl)oxy)methyl)-piperidine-1-carboxylate (Example 5 of PCT publication No. WO2017/135306). Reference Compound B is N-((2S,3S)-1-(2-hydroxy-2-methylpropanoyl)-2-((2,3′,5′-trifluorobiphenyl-3-yl)methyl)pyrrolidin-3-yl)methanesulfonamide (Example 483 of PCT publication No. WO2019/027058).

Compound	EC50
O=C1COc2ccc(Cl)cc2[C@H]2CC[C@H](CC2)OC[C@H]2[C@@H](NS(=O)(=O)C3CC3)CCCN12 (stereo in doubt) [Compound 16]	< 10 nM
Cc1ccc2c(c1)[C@H]1CC[C@H](CC1)OC[C@H]1[C@@H](NS(C)(=O)=O)CCCN1C(=O)CO2 (stereo in doubt) [Compound 17]	< 10 nM
Cc1ccc2c(c1)[C@H]1CC[C@H](CC1)OC[C@H]1[C@@H](NS(=O)(=O)C(C)C)CCCN1C(=O)CO2 (stereo in doubt) [Compound 18]	< 10 nM
O=C1COc2ccccc2[C@H]2CC[C@H](CC2)OC[C@H]2[C@@H](NS(=O)(=O)CCO)CCCN12 (stereo in doubt) [Compound 19]	< 10 nM
CC(C)S(=O)(=O)N[C@H]1CCCN2C(=O)COc3ccc(Cl)cc3[C@H]3CC[C@H](CC3)OC[C@@H]12 (stereo in doubt) [Compound 26]	< 10 nM
Cc1c(Cl)ccc2c1[C@H]1CC[C@H](CC1)OC[C@H]1[C@@H](NS(=O)(=O)C(C)C)CCCN1C(=O)CO2 (stereo in doubt) [Compound 28]	< 10 nM
Cc1c(Cl)ccc2c1[C@H]1CC[C@H](CC1)OC[C@H]1[C@@H](NS(C)(=O)=O)CCCN1C(=O)CO2 (stereo in doubt) [Compound 31]	< 10 nM
O=C1COc2ccccc2[C@H]2CC[C@H](CC2)OC[C@H]2[C@@H](NS(=O)(=O)C3CCCC3)CCCN12 (stereo in doubt) [Compound 33]	< 10 nM
Cc1cnc2c(c1)[C@H]1CC[C@H](CC1)OC[C@H]1[C@@H](NS(=O)(=O)C(C)C)CCCN1C(=O)CO2 (stereo in doubt) [Compound 34]	< 10 nM
CC(C)S(=O)(=O)N[C@H]1CCCN2C(=O)COc3ncc(Cl)cc3[C@H]3CC[C@H](CC3)OC[C@@H]12 (stereo in doubt) [Compound 35]	< 10 nM
Cc1cccc2c1OCC(=O)N1CCC[C@H](NS(C)(=O)=O)[C@@H]1CO[C@H]1CC[C@@H]2CC1 (stereo in doubt) [Compound 37]	< 10 nM
CN(C)CCS(=O)(=O)N[C@H]1CCCN2C(=O)COc3ccccc3[C@H]3CC[C@H](CC3)OC[C@@H]12 (stereo in doubt) [Compound 39]	< 10 nM
Cc1ccc2c(c1)OCC(=O)N1CCC[C@H](NS(C)(=O)=O)[C@@H]1CO[C@H]1CC[C@@H]2CC1 (stereo in doubt) [Compound 40]	10 to 1000 nM
O=C1COc2ccccc2[C@H]2CC[C@H](CC2)OC[C@H]2[C@@H](NS(=O)(=O)C3CCC3)CCCN12 (stereo in doubt) [Compound 42]	< 10 nM
O=C1COc2ccccc2[C@H]2CC[C@H](CC2)OC[C@H]2[C@@H](NS(=O)(=O)CC3CCC3)CCCN12 (stereo in doubt) [Compound 43]	10 to 1000 nM
CC(C)(C)S(=O)(=O)N[C@H]1CCCN2C(=O)COc3ccccc3[C@H]3CC[C@H](CC3)OC[C@@H]12 (stereo in doubt) [Compound 44]	10 to 1000 nM

Compound	EC50
CS(=O)(=O)N[C@H]1CCCN2C(=O)COc3ccc(C#N)cc3[C@H]3CC[C@H](CC3)OC[C@@H]12 (stereo in doubt) [Compound 46]	10 to 1000 nM
CS(=O)(=O)N[C@H]1CCCN2C(=O)COc3cc(C#N)ccc3[C@H]3CC[C@H](CC3)OC[C@@H]12 (stereo in doubt) [Compound 47]	10 to 1000 nM
O=C1COc2ccccc2[C@H]2CC[C@H](CC2)OC[C@H]2[C@@H](NS(=O)(=O)CC3CC3)CCCN12 (stereo in doubt) [Compound 48]	< 10 nM
Cc1cccc2c1OCCN1CCC[C@H](NS(C)(=O)=O)[C@@H]1CO[C@H]1CC[C@@H]2CC1 (stereo in doubt) [Compound 49]	> 1000 nM
Cc1ccc2c(c1)OCCN1CCC[C@H](NS(C)(=O)=O)[C@@H]1CO[C@H]1CC[C@@H]2CC1 (stereo in doubt) [Compound 50]	> 1000 nM
O=S(=O)(N[C@H]1CCCN2CCOc3ccccc3[C@H]3CC[C@H](CC3)OC[C@@H]12)C1CC1 (stereo in doubt) [Compound 51]	10 to 1000 nM
CC(C)S(=O)(=O)N[C@H]1CCCN2CCOc3ccccc3[C@H]3CC[C@H](CC3)OC[C@@H]12 (stereo in doubt) [Compound 52]	> 1000 nM
CCS(=O)(=O)N[C@H]1CCCN2CCOc3ccccc3[C@H]3CC[C@H](CC3)OC[C@@H]12 (stereo in doubt) [Compound 53]	> 1000 nM
Cc1ccc2c(c1)[C@H]1CC[C@H](CC1)OC[C@H]1[C@@H](NS(C)(=O)=O)CCCN1CCO2 (stereo in doubt) [Compound 54]	10 to 1000 nM
O=S(=O)(CC1CCC1)N[C@H]1CCCN2CCOc3ccccc3[C@H]3CC[C@H](CC3)OC[C@@H]12 (stereo in doubt) [Compound 55]	> 1000 nM
CC(C)(C)S(=O)(=O)N[C@H]1CCCN2CCOc3ccccc3[C@H]3CC[C@H](CC3)OC[C@@H]12 (stereo in doubt) [Compound 56]	> 1000 nM
O=S(=O)(N[C@H]1CCCN2CCOc3ccccc3[C@H]3CC[C@H](CC3)OC[C@@H]12)C1CCC1 (stereo in doubt) [Compound 57]	10 to 1000 nM
CC1(S(=O)(=O)N[C@H]2CCCN3CCOc4ccccc4[C@H]4CC[C@H](CC4)OC[C@@H]23)CC1 (stereo in doubt) [Compound 58]	10 to 1000 nM
O=S(=O)(CC1CC1)N[C@H]1CCCN2CCOc3ccccc3[C@H]3CC[C@H](CC3)OC[C@@H]12 (stereo in doubt) [Compound 59]	10 to 1000 nM
Cc1ccnc2c1[C@H]1CC[C@H](CC1)OC[C@H]1[C@@H](NS(=O)(=O)C3CC3)CCCN1C(=O)CO2 (stereo in doubt) [Compound 62]	< 10 nM

Next, values leading:

EC50	Compound
< 10 nM	O=C1COc2ccccc2[C@H]2CC[C@H](CC2)OC[C@H]2[C@@H](NS(=O)(=O)C3CC3)CCCN12 (stereo in doubt) [Compound 1]
< 10 nM	Cc1cccc2c1[C@H]1CC[C@H](CC1)OC[C@H]1[C@@H](NS(C)(=O)=O)CCCN1C(=O)CO2 (stereo in doubt) [Compound 2]
< 10 nM	CC(C)S(=O)(=O)N[C@H]1CCCN2C(=O)COc3ccccc3[C@H]3CC[C@H](CC3)OC[C@@H]12 (stereo in doubt) [Compound 3]
< 10 nM	Cc1cccc2c1[C@H]1CC[C@H](CC1)OC[C@H]1[C@@H](NS(=O)(=O)C3CC3)CCCN1C(=O)CO2 (stereo in doubt) [Compound 4]
< 10 nM	C=CS(=O)(=O)N[C@H]1CCCN2C(=O)COc3ccccc3[C@H]3CC[C@H](CC3)OC[C@@H]12 (stereo in doubt) [Compound 5]
< 10 nM	O=C1COc2ccccc2[C@H]2CC[C@H](CC2)OC[C@H]2[C@@H](NS(=O)(=O)CF)CCCN12 (stereo in doubt) [Compound 6]
< 10 nM	O=C1COc2ccccc2[C@H]2CC[C@H](CC2)OC[C@H]2[C@@H](NS(=O)(=O)C(F)F)CCCN12 (stereo in doubt) [Compound 7]
< 10 nM	CC1(S(=O)(=O)N[C@H]2CCCN3C(=O)COc4ccccc4[C@H]4CC[C@H](CC4)OC[C@@H]23)CC1 (stereo in doubt) [Compound 8]
< 10 nM	Cc1cccc2c1[C@H]1CC[C@H](CC1)OC[C@H]1[C@@H](NS(=O)(=O)C(C)C)CCCN1C(=O)CO2 (stereo in doubt) [Compound 9]
< 10 nM	Cc1ccnc2c1[C@H]1CC[C@H](CC1)OC[C@H]1[C@@H](NS(=O)(=O)C(C)C)CCCN1C(=O)CO2 (stereo in doubt) [Compound 10]
< 10 nM	O=C1COc2ccccc2[C@H]2CC[C@H](CC2)OC[C@H]2[C@@H](NS(=O)(=O)C(F)(F)F)CCCN12 (stereo in doubt) [Compound 11]
< 10 nM	Cc1ccnc2c1[C@H]1CC[C@H](CC1)OC[C@H]1[C@@H](NS(C)(=O)=O)CCCN1C(=O)CO2 (stereo in doubt) [Compound 12]
< 10 nM	Cc1ccc2c(c1)[C@H]1CC[C@H](CC1)OC[C@H]1[C@@H](NS(=O)(=O)C3CC3)CCCN1C(=O)CO2 (stereo in doubt) [Compound 13]
< 10 nM	O=C1COc2ncccc2[C@H]2CC[C@H](CC2)OC[C@H]2[C@@H](NS(=O)(=O)C3CC3)CCCN12 (stereo in doubt) [Compound 14]
< 10 nM	CC(C)S(=O)(=O)N[C@H]1CCCN2C(=O)COc3ncccc3[C@H]3CC[C@H](CC3)OC[C@@H]12 (stereo in doubt) [Compound 15]
